Reference: US10723764B2, “Anti-microbial peptides and methods of use thereof” (priority 2011, dated 2020)
Values after ≈ are worked out from the molar mass of the structure shown. Where a SMILES comes first, the peptide text is derived from it. Where no end group is shown, it is not given here. [ ]: non-standard residue; d: D form. Phe(4-CF3) = N[C@@H](Cc1ccc(C(F)(F)F)cc1)C(=O)O; Bip = N[C@@H](Cc1ccc(-c2ccccc2)cc1)C(=O)O

Key:
[1] = human, hemolysis, at 160 μM, human red blood cells
Protocol: (§1) Peptide hemolysis was assayed using an established protocol (Malmsten et al. (2011) PLoS One 6:e16400). In brief, fresh blood, obtained from the UNMC Blood Bank, was washed three times with PBS buffer and made into a 5% solution. To 90 μL of this solution, 10 μL of a peptide solution was added and incubated at 37° C. for one hour. After centrifugation at 13,000 rpm, aliquots of the supernatant were transferred to a fresh 96 well microplate. The absorbance of the solutions was measured at 545 nm to detect the amount of hemoglobin released. The percent lysis was calculated by assuming 100% release when treated with 2% Triton X-100 and no lysis (0%) when treated with PBS buffer. HL50 was the peptide concentration that caused 50% lysis of human erythrocytes. The cell selectivity (CS) indexes were calculated as the ratio of HL50 to the MIC of the peptide against S. aureus USA300.
(§2) The hemolytic effects of the six peptides were also compared on human red blood cells (hRBC) using an established protocol (Malmsten et al. (2011) PLoS One 6:e16400). […] A high TI indicates good cell selectivity.
(§3) Peptide hemolysis was assayed using an established protocol (Menousek et al. (2012) Int. J. Antimicrob. Agents 39:402-406; Malmsten et al. (2011) PLoS One 6:e16400). Briefly, blood cells were washed three times with phosphate-buffered saline (PBS) and were diluted to a 5% solution. Following peptide treatment, incubation at 37° C. for 1 hour and centrifugation at 13,000 rpm, aliquots of the supernatant were transferred to a fresh 96-well microplate. To assess peptide cytotoxicity, the amount of hemoglobin released was measured at 545 nm. Percent lysis was calculated by assuming 100% release when human blood cells were treated with 2% Triton X-100 and 0% release when they were incubated with PBS buffer.

human erythrocytes = details: for HL50 (μM), peptide concentration that causes 50% lysis of human erythrocytes: Table 10
Protocol: as §1, §2, §3

E. cloacae B2366-12 = format: cell-based; details: B2366-12
Protocol: (§4) The antibacterial activities of the peptides were determined using the standard broth microdilution method (Mishra et al. (2012) J. Am. Chem. Soc., 134:12426-12429; Wang et al. (2005) Biol. Chem., 280:5803-5811). Briefly, the bacterial culture was treated with a series of peptide solutions, each with two-fold dilution. After overnight incubation at 37° C., the microplate was read on a ChroMate® 4300 Microplate Reader at 630 nm (GMI, Ramsey, Minn.).

Escherichia coli K12 = details: Table 8
ESKAPE pathogens = format: cell-based
Protocol: as §4
A rational design was conducted on the basis of the 3D structure of GF-17d3. […] The noncoherent packing of the GF-17d3 side chains caused a hydrophobic defect in the structure (FIGS. 8C and 8D, arrow), leading to reduced hydrophobicity. Accordingly, it was hypothesized that the antimicrobial activity of this peptide 17F2 (sequence GX1KRLVQRLKDX2LRNLV (SEQ ID NO: 58), Table 9) could be enhanced by filling in the hydrophobic cavity (FIG. 8D, arrow) with a larger hydrophobic side chain. The antimicrobial activities of these peptide analogues were evaluated using the standard microdilution assays (Mishra et al. (2012) J. Am. Chem. Soc., 134:12426-12429), and the minimal inhibitory concentrations (MIC) against a panel of the ESKAPE pathogens are provided in Table 10. […] To compare the two sites, these two substitutions at positions X1 and X2 were swapped to obtain 17Naph-mF. […] In addition, biphenylalanines were incorporated at position X1 alone or at both X1 and X2 of the 17F2 template. […] The killing abilities of these peptides are essentially proportional to their MIC values as well as retention times (a measure of hydrophobicity) on a reverse-phase HPLC column (Mishra et al. (2012) J. Am. Chem. Soc., 134:12426-12429).

E. faecium ATCC51559 = format: cell-based, Enterococcus faecium; details: ATCC51559
Protocol: as §4

[2] = system: Pseudomonas aeruginosa PAO1; format: cell-based
Protocol: (§5) The bacterial strains used in the study are Bacillus subtilis 168, methicillin-resistant Staphylococcus aureus USA300 LAC (Gram-positive), Escherichia coli K12, and Pseudomonas aeruginosa PAO1 (Gram negative). The antibacterial activities of the peptides were determined using the standard broth microdilution method (Wang et al. (2005) J. Biol. Chem., 280:5803-5811). In brief, the bacterial culture (90 μL) was treated with a series of peptide solutions (10 μL), each with two-fold dilution. After overnight incubation at 37° C., the microplate was read on a ChroMate® 4300 Microplate Reader at 630 nm (GMI, Ramsey, Minn.).
(§6) For the initial screen, antimicrobial activities of these peptides against S. aureus and E. coli were evaluated using the standard broth microdilution protocol (Wang, G. (2008) J. Biol. Chem., 283:32637-43). […] Subsequently, the in vitro activity of these six peptides was evaluated against Bacillus subtilis and Pseudomonas aeruginosa (Table 6). […] While maculatin 1.3 is active against two Gram-positive but not two Gram-negative bacterial strains, DASamP1 is species-specific since it active only against S. aureus. The finding that ascaphin-8, […], and piscidin 1 are wide-spectrum AMPs agrees with the literature (Apponyi et al. (2004) Peptides 25:1035-1054; Conlon et al. (2004) Biochem. Biophys. Res. Commun., 320:170-175; Silphaduang et al. (2001) Nature 414:268-269; Souza et al. (2005) J. Immunol., 186:6585-6596). For lycotoxin I, it was previously found to active against Gram-negative E. coli and yeast (Yan et al. (1998) J. Biol. Chem., 273:2059-2066).
as §4

[3] = system: methicillin-resistant Staphylococcus aureus USA300 LAC; details: for MIC (μM) SA: S. aureus USA300 LAC, Table 10; for S. aureus USA 300 MIC: Table 8
Protocol: This was done by modifying the standard microdilution antimicrobial assays (Wang, G. (2008) J. Biol. Chem., 283:32637-32643). Specifically, the bacterial wells with a high peptide concentration (e.g. 100 μM) are duplicated (e.g., two for antimicrobial assays and two for protease stability assays). As an illustration, chymotrypsin was applied to the duplicated wells at a peptide:protease molar ratio of 25:1.

A. baumannii B2367-12 = format: cell-based, Acinetobacter baumanii
Protocol: as §4

S. aureus V8 protease = S. aureus V8 protease (Staphylococcus aureus, UniProt P0C1U8); format: in vitro ADME; details: peptide/protease 40:1, PBS pH 8, 37° C.
Sequence of S. aureus V8 protease (P0C1U8 69-336): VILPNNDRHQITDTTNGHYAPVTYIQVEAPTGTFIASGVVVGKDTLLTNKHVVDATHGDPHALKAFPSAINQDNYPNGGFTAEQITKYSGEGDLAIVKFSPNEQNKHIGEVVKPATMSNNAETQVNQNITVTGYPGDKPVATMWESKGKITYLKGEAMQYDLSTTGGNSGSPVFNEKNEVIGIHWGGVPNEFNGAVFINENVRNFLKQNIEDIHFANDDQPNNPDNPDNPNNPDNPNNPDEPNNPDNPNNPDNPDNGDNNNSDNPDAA
Protocol: (§7) FIG. 10 provides a stability comparison of synthetic 17BIPHE2 with GF-17 in the presence of bovine chymotrypsin, porcine trypsin, S. aureus protease V8, and fungal protease K. Two samples were analyzed in this gel for each protease: 0 and 6 hours for GF-17 and 0 and 24 hours for 17BIPHE2.
(§8) Peptide stability was evaluated based on a published protocol (Mishra et al. (2012) J. Am. Chem. Soc., 134:12426-12429) with one modification. Aliquots (10 μL) of the reaction solutions (peptide/protease molar ratio, 40:1) in 10 mM PBS buffer (pH 8) at 37° C. were taken at 0, 6, and 24 hours and immediately mixed with 10 μL of 2×SDS loading buffer followed by boiling for 5 minutes to stop the reaction. Samples were analyzed using 5% stacking/18% resolving tricine gel.

fungal protease K = fungal protease K (Parengyodontium album, UniProt P06873); assay: Peptide stability to fungal protease K by SDS-PAGE; format: in vitro ADME; details: peptide/protease 40:1, PBS pH 8, 37° C.
Sequence of fungal protease K (P06873 106-384): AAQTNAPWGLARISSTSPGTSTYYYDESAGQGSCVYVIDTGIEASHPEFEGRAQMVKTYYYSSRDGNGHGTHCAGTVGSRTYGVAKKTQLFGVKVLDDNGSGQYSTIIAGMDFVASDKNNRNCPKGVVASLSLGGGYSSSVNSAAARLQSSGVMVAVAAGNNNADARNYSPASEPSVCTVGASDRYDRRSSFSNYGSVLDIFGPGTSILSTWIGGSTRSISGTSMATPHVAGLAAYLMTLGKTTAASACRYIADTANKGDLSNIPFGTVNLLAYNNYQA
Protocol: as §7, §8

chymotrypsin = chymotrypsin (Bos taurus, UniProt P00766); assay: Peptide stability to chymotrypsin by SDS-PAGE; format: in vitro ADME, bovine; details: for time the peptide stays intact in the presence of chymotrypsin: 12.5 μM chymotrypsin, peptide/protein 40:1, PBS pH 8, 37° C.
Protocol: A solution (100 μl) of the peptide and 12.5 μM chymotrypsin (peptide/protein molar ratio, 40:1) in 10 mM PBS buffer (pH 8) was incubated at 37° C. Aliquots (10 μl) of the reaction solutions were taken at 0, 2, 4, and 22 hours and immediately mixed with 20 μl of 2×SDS loading buffer to stop the reaction. For the gel analysis, 10 μl of each sample was loaded to the well of a 5% stacking/18% resolving tricine gel. The samples in the lanes are: 1, protein marker; 2, temporin-PTa L-form at 0 hour; 3, 2 hours; 4, 4 hours; 5, 22 hours; 6, temporin-PTa D-form at 0 hour; 7, 2 hours; 8, 4 hours; 9, 22 hours. In the gel, the bands for the peptide and chymotrypsin were indicated with large and small arrows, respectively. Note that the peptide bands were not detected in lanes 3-5 due to protease cleavage but remained essentially constant in lanes 7-9.
Peptide stability was evaluated using standard SDS-PAGE (described in FIG. 5).
as §8

Bacillus subtilis 168 = format: cell-based
Protocol: as §5, §6

[4] = Peptide solubility (observation); format: physicochemical

Compound: CC(C)C[C@H](NC(=O)[C@H](CC(N)=O)NC(=O)[C@H](CCCNC(=N)N)NC(=O)[C@@H](CC(C)C)NC(=O)[C@H](Cc1ccccc1)NC(=O)[C@H](CC(=O)O)NC(=O)[C@H](CCCCN)NC(=O)[C@@H](CC(C)C)NC(=O)[C@H](CCCNC(=N)N)NC(=O)[C@H](CCC(N)=O)NC(=O)[C@@H](NC(=O)[C@@H](CC(C)C)NC(=O)[C@H](CCCNC(=N)N)NC(=O)[C@H](CCCCN)NC(=O)[C@H](Cc1ccc(C(F)(F)F)cc1)NC(=O)CN)C(C)C)C(=O)N[C@H](C(N)=O)C(C)C [B128A, GX1KRLVQRLKDX2LRNLV-amide] (H-G[Phe(4-CF3)]KR[dL]VQR[dL]KDF[dL]RNLV-NH2)
- hemolysis at 160 µM [1]: 3 to 5%
- HL50 (μM), peptide concentration that causes 50% lysis of human erythrocytes (human erythrocytes): >900 µM
- hemolysis (human erythrocytes; human, 160 µM): <5%
- MIC (μM) EC (E. cloacae B2366-12): 25 µM (≈ 54.2 µg/mL)
- E. coli K12 MIC (Escherichia coli K12): 5 µM
- MICs against most of the ESKAPE strains (ESKAPE pathogens; most of the ESKAPE strains): 25 to 50 µM
- MIC (μM) EF (E. faecium ATCC51559): 25 to 50 µM
- MIC (μM) PA [2]: 25 µM (≈ 54.2 µg/mL)
- MIC (μM) SA [3]: 25 µM (≈ 54.2 µg/mL)
- S. aureus USA 300 MIC [3]: 40 µM
- MIC (μM) AB (A. baumannii B2367-12): 3.1 to 6.2 µM

Compound: CC(C)C[C@H](NC(=O)[C@H](CC(N)=O)NC(=O)[C@H](CCCNC(=N)N)NC(=O)[C@@H](CC(C)C)NC(=O)[C@H](Cc1ccc(-c2ccccc2)cc1)NC(=O)[C@H](CC(=O)O)NC(=O)[C@H](CCCCN)NC(=O)[C@@H](CC(C)C)NC(=O)[C@H](CCCNC(=N)N)NC(=O)[C@H](CCC(N)=O)NC(=O)[C@@H](NC(=O)[C@@H](CC(C)C)NC(=O)[C@H](CCCNC(=N)N)NC(=O)[C@H](CCCCN)NC(=O)[C@H](Cc1ccc(-c2ccccc2)cc1)NC(=O)CN)C(C)C)C(=O)N[C@H](C(N)=O)C(C)C [D128A, GX1KRLVQRLKDX2LRNLV-amide] (H-G[Bip]KR[dL]VQR[dL]KD[Bip][dL]RNLV-NH2)
- HL50 (μM), peptide concentration at which 50% human red blood cells were lysed (human erythrocytes; Table 8): 150 µM
- HL50 (μM), peptide concentration that causes 50% lysis of human erythrocytes (human erythrocytes): 225 µM
- time stable in the presence of S. aureus V8 protease (S. aureus V8 protease): at least 24 hours
- MIC (μM) EC (E. cloacae B2366-12): 3.1 µM (≈ 6.99 µg/mL)
- E. coli K12 MIC (Escherichia coli K12): 2.5 µM
- MIC against all of the ESKAPE pathogens (ESKAPE pathogens): 3.1 to 6.2 µM
- MIC (μM) EF (E. faecium ATCC51559): 3.1 µM (≈ 6.99 µg/mL)
- MIC (μM) PA [2]: 6.2 µM (≈ 14 µg/mL)
- MIC (μM) SA [3]: 3.1 µM (≈ 6.99 µg/mL)
- S. aureus USA 300 MIC [3]: 5 µM
- time stable in the presence of fungal protease K (fungal protease K): at least 24 hours
- level of intact peptide in the presence of chymotrypsin (chymotrypsin; during 4 hours): remained constant
- MIC (μM) AB (A. baumannii B2367-12): 3.1 µM (≈ 6.99 µg/mL)

Compound: CC[C@@H](C)[C@@H](NC(=O)[C@@H](CCCCN)NC(=O)[C@H]1CCCN1C(=O)[C@H](NC(=O)[C@@H](CC(C)C)NC(=O)[C@@H](CCCCN)NC(=O)[C@@H](CC(C)C)NC(=O)[C@H](NC(=O)[C@@H](CO)NC(=O)CNC(=O)[C@@H](Cc1ccccc1)NC(=O)[C@H](N)Cc1ccccc1)C(C)C)[C@H](C)CC)C(=O)N[C@H](CC(C)C)C(N)=O [Temporin-PTa (D-form)]
- MIC (μM) PA [2]: >100 µM
- time the peptide stays intact in the presence of chymotrypsin (chymotrypsin): at least 22 hours
- MIC (μM) BS (Bacillus subtilis 168): 6.25 µM (≈ 9.21 µg/mL)

Compound: CC[C@H](C)[C@H](NC(=O)[C@H](CCCCN)NC(=O)[C@@H]1CCCN1C(=O)[C@@H](NC(=O)[C@H](CC(C)C)NC(=O)[C@H](CCCCN)NC(=O)[C@H](CC(C)C)NC(=O)[C@@H](NC(=O)[C@H](CO)NC(=O)CNC(=O)[C@H](Cc1ccccc1)NC(=O)[C@@H](N)Cc1ccccc1)C(C)C)[C@@H](C)CC)C(=O)N[C@@H](CC(C)C)C(N)=O [Temporin-PTa, reference compound]
- time the peptide stays intact in the presence of chymotrypsin (chymotrypsin): ≤ 2 h

Compound: FFGSLLKLLPKLL-NH2 [Temporin-PTa6L]
- MIC (μM) BS (Bacillus subtilis 168): 3.12 µM

Compound: GIIPIISIIGKII-NH2 (C-terminus assumed) [DFTamP1-pi]
- solubility [4]: poorly soluble

Compound: LLGSLLKLLPKLL-NH2 [Temporin-PTa8L]
- MIC (μM) PA [2]: >100 µM
- MIC (μM) BS (Bacillus subtilis 168): 3.12 µM
